The values that follow come from patent US11987588B2, “Modulators of the beta-3 adrenergic receptor useful for the treatment or prevention of heart failure and disorders related thereto” (Arena Pharmaceuticals, Inc., priority 2017, dated 2024).

Sequence of Beta-3 Adrenergic Receptor (P13945 whole entry, species assumed): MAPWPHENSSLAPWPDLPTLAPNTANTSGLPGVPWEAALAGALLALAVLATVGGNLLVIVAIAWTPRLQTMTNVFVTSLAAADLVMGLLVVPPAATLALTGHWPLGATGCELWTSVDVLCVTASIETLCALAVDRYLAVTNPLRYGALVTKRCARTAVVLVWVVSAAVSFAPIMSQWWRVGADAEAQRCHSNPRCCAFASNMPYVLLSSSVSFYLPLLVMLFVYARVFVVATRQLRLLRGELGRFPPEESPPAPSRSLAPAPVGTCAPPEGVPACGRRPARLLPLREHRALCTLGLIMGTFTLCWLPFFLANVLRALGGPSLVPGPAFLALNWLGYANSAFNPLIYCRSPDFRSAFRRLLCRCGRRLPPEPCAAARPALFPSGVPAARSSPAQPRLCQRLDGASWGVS

For the experiment, the target named is Beta-3 Adrenergic Receptor (Homo sapiens (Human), UniProt P13945). As to the kind of experiment: Homogeneous Time-Resolved Fluorescence (HTRF) cAMP antagonist assay, IC50 determination. Format: cell-based. Conditions: CHO-K1 cells stably expressing recombinant receptor, isoproterenol at EC90. The method, boiled down:
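In this functional readout, recombinant CHO-K1 cells received compound, then isoproterenol at its EC90. After 1 h at room temperature, cAMP levels were determined by HTRF using an on-plate standard curve, and IC50 values were fitted.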
In general terms: Time-resolved FRET reads energy transfer from a long-lived donor to a nearby acceptor.
On to `CNS(=O)(=O)c1cccc(OC[C@@H](O)CN[C@H]2COC3(CCN(S(=O)(=O)c4cccc(-c5ccc(CNCCC(C)C)cc5)c4)CC3)C2)c1` [Compound 364, 3-((S)-2-hydroxy-3-((R)-8-(4′-((isopentylamino)methyl)biphenyl-3-ylsulfonyl)-1-oxa-8-azaspiro[4.5]decan-3-ylamino)propoxy)-N-methylbenzenesulfonamide], for which the IC50 is 144 nM.
On to `CNS(=O)(=O)c1cccc(OC[C@@H](O)CNC2COC3(CCN(S(=O)(=O)c4cccc(-c5ccccc5)c4)CC3)C2)c1` (stereo partly drawn) [Compound 31, 3-((2S)-3-(8-(biphenyl-3-ylsulfonyl)-1-oxa-8-azaspiro[4.5]decan-3-ylamino)-2-hydroxypropoxy)-N-methylbenzenesulfonamide], for which the half-inhibitory concentration (IC50) is 21 nM.
On to `CNS(=O)(=O)c1cccc(OC[C@@H](O)CNC2COC3(CCN(S(=O)(=O)c4cccc(-c5cccc(C#N)c5)c4)CC3)C2)c1` (stereo partly drawn) [Compound 72, 3-((2S)-3-(8-(3′-cyanobiphenyl-3-ylsulfonyl)-1-oxa-8-azaspiro[4.5]decan-3-ylamino)-2-hydroxypropoxy)-N-methylbenzenesulfonamide], for which the 50% inhibitory concentration (IC50) turned out to be 28.7 nM.
For the compound `CNS(=O)(=O)c1cccc(OC[C@@H](O)CNC2COC3(CCN(S(=O)(=O)c4cccc(-c5ccc(CNC(=O)CN)cc5)c4)CC3)C2)c1` (stereo partly drawn) [Compound 353, 2-amino-N-((3′-(3-((S)-2-hydroxy-3-(3-(N-methylsulfamoyl)phenoxy)propylamino)-1-oxa-8-azaspiro[4.5]decan-8-ylsulfonyl)biphenyl-4-yl)methyl)acetamide], the 50% inhibitory concentration (IC50) stood at 58 nM.
Under `CNS(=O)(=O)c1cccc(OC[C@@H](O)CN[C@@H]2COC3(CCN(S(=O)(=O)c4cccc(-c5cnn(C)c5)c4)CC3)C2)c1` [Compound 216, 3-((S)-2-hydroxy-3-((S)-8-(3-(1-methyl-1H-pyrazol-4-yl)phenylsulfonyl)-1-oxa-8-azaspiro[4.5]decan-3-ylamino)propoxy)-N-methylbenzenesulfonamide] stands 57.7 nM; under `CN(C)S(=O)(=O)c1cccc(OC[C@@H](O)CNC2COC3(CCN(S(=O)(=O)c4ccc5nsnc5c4)CC3)C2)c1` (stereo partly drawn) [Compound 251, 3-((2S)-3-(8-(benzo[c][1,2,5]thiadiazol-5-ylsulfonyl)-1-oxa-8-azaspiro[4.5]decan-3-ylamino)-2-hydroxypropoxy)-N,N-dimethylbenzenesulfonamide], 32.9 nM; under `CNS(=O)(=O)c1cccc(OC[C@@H](O)CNC2COC3(CCN(S(=O)(=O)c4cccc(-c5cncc(C#N)c5)c4)CC3)C2)c1` (stereo partly drawn) [Compound 370, 3-((2S)-3-(8-(3-(5-cyanopyridin-3-yl)phenylsulfonyl)-1-oxa-8-azaspiro[4.5]decan-3-ylamino)-2-hydroxypropoxy)-N-methylbenzenesulfonamide], 47.8 nM.
Under `Cc1cccc2c(=O)c(S(=O)(=O)N3CCC4(CC3)C[C@@H](NC[C@H](O)COc3cccc(S(N)(=O)=O)c3)CO4)c[nH]c12` [Compound 553, 3-((S)-2-hydroxy-3-((R)-8-(8-methyl-4-oxo-1,4-dihydroquinolin-3-ylsulfonyl)-1-oxa-8-azaspiro[4.5]decan-3-ylamino)propoxy)benzenesulfonamide] stands 23.6 nM; under `CNS(=O)(=O)c1cccc(OC[C@@H](O)CNC2COC3(CCN(S(=O)(=O)c4cccc(-c5cccc(S(C)(=O)=O)c5)c4)CC3)C2)c1` (stereo partly drawn) [Compound 71, 3-((2S)-2-hydroxy-3-(8-(3′-(methylsulfonyl)biphenyl-3-ylsulfonyl)-1-oxa-8-azaspiro[4.5]decan-3-ylamino)propoxy)-N-methylbenzenesulfonamide], 31.2 nM.
As to `CCNS(=O)(=O)c1cccc(OC[C@@H](O)CNC2COC3(CCN(S(=O)(=O)c4cccc(-c5ccc(OCC#N)cc5)c4)CC3)C2)c1` (stereo partly drawn) [Compound 213, 3-((2S)-3-(8-(4′-(cyanomethoxy)biphenyl-3-ylsulfonyl)-1-oxa-8-azaspiro[4.5]decan-3-ylamino)-2-hydroxypropoxy)-N-ethylbenzenesulfonamide], the IC50 turned out to be 49.1 nM.
Under `CNS(=O)(=O)c1cccc(OC[C@@H](O)CNC2COC3(CCN(S(=O)(=O)c4ccc(-c5ccc(C(F)(F)F)cc5)cc4)CC3)C2)c1` (stereo partly drawn) [Compound 121, 3-((2S)-2-hydroxy-3-(8-(4′-(trifluoromethyl)biphenyl-4-ylsulfonyl)-1-oxa-8-azaspiro[4.5]decan-3-ylamino)propoxy)-N-methylbenzenesulfonamide] stands 67 nM; under `CCCn1cc(S(=O)(=O)N2CCC3(CC2)C[C@@H](NC[C@H](O)COc2cccc(S(N)(=O)=O)c2)CO3)c(=O)c2ccccc21` [Compound 551, 3-((S)-2-hydroxy-3-((R)-8-(4-oxo-1-propyl-1,4-dihydroquinolin-3-ylsulfonyl)-1-oxa-8-azaspiro[4.5]decan-3-ylamino)propoxy)benzenesulfonamide], 74.7 nM.
As for `CNS(=O)(=O)c1cccc(OC[C@@H](O)CNC2COC3(CCN(S(=O)(=O)c4ccc(-c5ccncc5)cc4)CC3)C2)c1` (stereo partly drawn) [Compound 408, 3-((2S)-2-hydroxy-3-(8-(4-(pyridin-4-yl)phenylsulfonyl)-1-oxa-8-azaspiro[4.5]decan-3-ylamino)propoxy)-N-methylbenzenesulfonamide], the half-maximal inhibitory concentration (IC50) is 39.1 nM.
For the compound `CNS(=O)(=O)c1cccc(OC[C@@H](O)CNC2COC3(CCN(S(=O)(=O)c4ccc(Cl)cc4Cl)CC3)C2)c1` (stereo partly drawn) [Compound 158, 3-((2S)-3-(8-(2,4-dichlorophenylsulfonyl)-1-oxa-8-azaspiro[4.5]decan-3-ylamino)-2-hydroxypropoxy)-N-methylbenzenesulfonamide], the IC50 was determined as 25.6 nM.
In the case of `CNS(=O)(=O)c1cccc(OC[C@@H](O)CNC2COC3(CCN(S(=O)(=O)c4cc(C(F)(F)F)ccc4Cl)CC3)C2)c1` (stereo partly drawn) [Compound 133, 3-((2S)-3-(8-(2-chloro-5-(trifluoromethyl)phenylsulfonyl)-1-oxa-8-azaspiro[4.5]decan-3-ylamino)-2-hydroxypropoxy)-N-methylbenzenesulfonamide] it was 65.4 nM; in that of `Cc1cc(S(=O)(=O)N2CCC3(CC2)CC(NC[C@H](O)COc2cccc(S(=O)(=O)N(C)C)c2)CO3)ccc1Br` (stereo partly drawn) [Compound 249, 3-((2S)-3-(8-(4-bromo-3-methylphenylsulfonyl)-1-oxa-8-azaspiro[4.5]decan-3-ylamino)-2-hydroxypropoxy)-N,N-dimethylbenzenesulfonamide], 29.5 nM; in that of `CCn1cc(-c2cccc(S(=O)(=O)N3CCC4(CC3)CC(NC[C@H](O)COc3cccc(S(=O)(=O)N(C)C)c3)CO4)c2)cn1` (stereo partly drawn) [Compound 272, 3-((2S)-3-(8-(3-(1-ethyl-1H-pyrazol-4-yl)phenylsulfonyl)-1-oxa-8-azaspiro[4.5]decan-3-ylamino)-2-hydroxypropoxy)-N,N-dimethylbenzenesulfonamide], 107 nM.
Consider `CNS(=O)(=O)c1cccc(OC[C@@H](O)CN[C@H]2COC3(CCN(S(=O)(=O)c4cc5c(nc4C)OCCN5C)CC3)C2)c1` [Compound 466, 3-((S)-3-((R)-8-(1,6-dimethyl-2,3-dihydro-1H-pyrido[2,3-b][1,4]oxazin-7-ylsulfonyl)-1-oxa-8-azaspiro[4.5]decan-3-ylamino)-2-hydroxypropoxy)-N-methylbenzenesulfonamide], for which the concentration for half-maximal inhibition (IC50) was 101 nM.

Broadly, the IC50 is the concentration that inhibits the measured activity by half.
